Patent publication US20230242582A1, “NOVEL ALPHA-HELICAL DOUBLE-SIDED CELL PENETRATING PEPTIDE AND USE THEREOF” (CAMP THERAPEUTICS INC., priority 2020, published 2023)
Positions of bridges follow the written chain, without caps; N, C: chain ends. Non-standard residues stand in square brackets, D forms with d. Residues, ends and D or L forms follow the SMILES beside them. Chains are numbered I, II in the order given. tBuAla = CC(C)(C)C[C@H](N)C(=O)O; hCys = N[C@@H](CCS)C(=O)O

Tests used:
HeLa cells [1] = test: Cell-penetrating ability of fluorescently labeled dimeric peptides, flow cytometry; assay type: cell-based, human; details: for ratio of cell-penetrating ability to cytotoxicity (IC50^−1): at 62.5 nM, FIG. 6A
Procedure: During preparation of CPPs in dimeric form shown in Tables 1 to 3, one monomer thereof was prepared in a form where 5-TAMRA fluorescence was attached to the N-terminus, instead of acetyl. A monomer with acetyl and a monomer with 5-TAMRA fluorescence were mixed in a molar ratio of 1:1, and subjected to an oxidation condition in air to produce a dimeric form in which only one fluorescence was labeled per dimer molecule. Then, cell-penetrating ability of each dimer was identified. Each fluorescently labeled peptide was used to treat HeLa cells (5×10^4 cells/well), which are human-derived cells, and a ratio of the number of cells with fluorescence to the total number of cells was obtained through flow cytometry.
FIGS. 4B to 4D illustrate results obtained by treating cells with respective dimers at the same concentration (62.5 nM), measuring fluorescence intensity of the cells by flow cytometry, and relatively comparing the fluorescence intensity.
Based on cell-penetrating ability and cytotoxicity of the dimeric peptides of the present disclosure, correlation therebetween was identified. Cytotoxicity (IC50^−1) and cell-penetrating ability of the respective peptides were identified at 62.5 nM according to the methods described in Examples 5 and 6, and then graphically represented.

HeLa cells [2] = test: Cytotoxicity of dimeric peptides, WST-1 assay; assay type: cell-based, human; details: for ratio: IC50 relative to LK-3, HeLa cells
Procedure: Cytotoxicity was identified using WST-1 assay by treating HeLa cells with peptides in a 96-well plate (1×10^4 cells/well) for 24 hours.
Specifically, HeLa cells were cultured in DMEM at a condition of 37° C. with 5% CO2. The cells were respectively cultured in a cell culture plate, and then removed with trypsin. The cells were seeded at 1×10^4 cells per well in a 96-well plate. After 24 hours, the peptide was added to the media, and culture was performed again at a condition of 37° C. with 5% CO2 for 24 hours. 10 uL of WST-1 reagent was added per well, and reaction was allowed to proceed for 30 minutes at a condition of 37° C. with 5% CO2. Then, UV absorbance was measured at 450/700 nm with a 96-well plate reader.

Compound	ratio of cell-penetrating ability to cytotoxicity (IC50^−1) (HeLa cells [1])	ratio (HeLa cells [2])	also measured
CC(=O)N[C@@H](CC(C)(C)C)C(=O)N[C@H]1CSSC[C@@H](C(=O)N[C@@H](CCCCN)C(N)=O)NC(=O)[C@H](CC(C)(C)C)NC(=O)[C@H](CCCCN)NC(=O)[C@H](CCCCN)NC(=O)[C@H](CC(C)(C)C)NC(=O)[C@H](CC(C)(C)C)NC(=O)[C@H](CCCCN)NC(=O)[C@@H](NC(=O)[C@H](CC(C)(C)C)NC(C)=O)CSSC[C@@H](C(=O)N[C@@H](CCCCN)C(N)=O)NC(=O)[C@H](CC(C)(C)C)NC(=O)[C@H](CCCCN)NC(=O)[C@H](CCCCN)NC(=O)[C@H](CC(C)(C)C)NC(=O)[C@H](CC(C)(C)C)NC(=O)[C@H](CCCCN)NC1=O [diNpgK10] (I: Ac-[tBuAla]CK[tBuAla][tBuAla]KK[tBuAla]CK-NH2 / II: Ac-[tBuAla]CK[tBuAla][tBuAla]KK[tBuAla]CK-NH2; disulfide I:2-II:9, I:9-II:2 (inferred))	low toxicity as compared with cell-penetrating ability	–	–
diLH10: dimer of monomer LH10, AC-LCHLLHHLCH-NH2 (SEQ ID NO 14) (Ac-LCHLLHHLCH-NH2; also: dimer of two monomers linked by interchain disulfide bonds)	–	–	toxicity (HeLa cells [2]; even at 40 μM, data not shown): no toxicity was observed
diLR10^C9Hcy: dimer of monomer LR10^C9Hcy, Ac-LCRLLRRLHcyR-NH2 (SEQ ID NO 43) (Ac-LCRLLRRL[hCys]R-NH2; also: dimer linked by intermolecular disulfides)	–	–	cell-penetrating ability (HeLa cells [1]; HeLa cells, flow cytometry, FIG. 4): best results
CC(=O)N[C@@H](CC(C)(C)C)C(=O)N[C@H]1CSSC[C@@H](C(=O)N[C@@H](CCCNC(=N)N)C(N)=O)NC(=O)[C@H](CC(C)(C)C)NC(=O)[C@H](CCCNC(=N)N)NC(=O)[C@H](CCCNC(=N)N)NC(=O)[C@H](CC(C)(C)C)NC(=O)[C@H](CC(C)(C)C)NC(=O)[C@H](CCCNC(=N)N)NC(=O)[C@@H](NC(=O)[C@H](CC(C)(C)C)NC(C)=O)CSSC[C@@H](C(=O)N[C@@H](CCCNC(=N)N)C(N)=O)NC(=O)[C@H](CC(C)(C)C)NC(=O)[C@H](CCCNC(=N)N)NC(=O)[C@H](CCCNC(=N)N)NC(=O)[C@H](CC(C)(C)C)NC(=O)[C@H](CC(C)(C)C)NC(=O)[C@H](CCCNC(=N)N)NC1=O [diL*R10] (I: Ac-[tBuAla]CR[tBuAla][tBuAla]RR[tBuAla]CR-NH2 / II: Ac-[tBuAla]CR[tBuAla][tBuAla]RR[tBuAla]CR-NH2; disulfide I:2-II:9, I:9-II:2 (inferred))	–	3.11	–
CC[C@H](C)[C@H](NC(C)=O)C(=O)N[C@H]1CSSC[C@@H](C(=O)N[C@@H](CCCNC(=N)N)C(N)=O)NC(=O)[C@H]([C@@H](C)CC)NC(=O)[C@H](CCCNC(=N)N)NC(=O)[C@H](CCCNC(=N)N)NC(=O)[C@H]([C@@H](C)CC)NC(=O)[C@H]([C@@H](C)CC)NC(=O)[C@H](CCCNC(=N)N)NC(=O)[C@@H](NC(=O)[C@@H](NC(C)=O)[C@@H](C)CC)CSSC[C@@H](C(=O)N[C@@H](CCCNC(=N)N)C(N)=O)NC(=O)[C@H]([C@@H](C)CC)NC(=O)[C@H](CCCNC(=N)N)NC(=O)[C@H](CCCNC(=N)N)NC(=O)[C@H]([C@@H](C)CC)NC(=O)[C@H]([C@@H](C)CC)NC(=O)[C@H](CCCNC(=N)N)NC1=O [diIR10] (HELM PEPTIDE1{[ac].I.C.R.I.I.R.R.I.C.R.[am]}|PEPTIDE2{[ac].I.C.R.I.I.R.R.I.C.R.[am]}$PEPTIDE1,PEPTIDE2,3:R3-10:R3|PEPTIDE1,PEPTIDE2,10:R3-3:R3$$$V2.0; bridges inferred)	low toxicity as compared with cell-penetrating ability	3.24	–
CC(=O)N[C@@H](CC(C)C)C(=O)N[C@@H](CCCCN)C(=O)N[C@@H](CCCCN)C(=O)N[C@@H](CC(C)C)C(=O)N[C@H]1CSSC[C@@H](C(=O)N[C@@H](CCCCN)C(=O)N[C@@H](CC(C)C)C(=O)N[C@@H](C)C(=O)NCC(N)=O)NC(=O)[C@H](CC(C)C)NC(=O)[C@H](CCCCN)NC(=O)[C@H](CCCCN)NC(=O)[C@H](CC(C)C)NC(=O)[C@H](CC(C)C)NC(=O)[C@H](CCCCN)NC(=O)[C@@H](NC(=O)[C@H](CC(C)C)NC(=O)[C@H](CCCCN)NC(=O)[C@H](CCCCN)NC(=O)[C@H](CC(C)C)NC(C)=O)CSSC[C@@H](C(=O)N[C@@H](CCCCN)C(=O)N[C@@H](CC(C)C)C(=O)N[C@@H](C)C(=O)NCC(N)=O)NC(=O)[C@H](CC(C)C)NC(=O)[C@H](CCCCN)NC(=O)[C@H](CCCCN)NC(=O)[C@H](CC(C)C)NC(=O)[C@H](CC(C)C)NC(=O)[C@H](CCCCN)NC1=O [LK-3, reference compound] (HELM PEPTIDE1{[ac].L.K.K.L.C.K.L.L.K.K.L.C.K.L.A.G.[am]}|PEPTIDE2{[ac].L.K.K.L.C.K.L.L.K.K.L.C.K.L.A.G.[am]}$PEPTIDE1,PEPTIDE2,6:R3-13:R3|PEPTIDE1,PEPTIDE2,13:R3-6:R3$$$V2.0; bridges inferred)	about 130,000	1.00	–
CC[C@H](C)[C@H](NC(C)=O)C(=O)N[C@H]1CSSC[C@@H](C(=O)N[C@@H](CCCCN)C(N)=O)NC(=O)[C@H]([C@@H](C)CC)NC(=O)[C@H](CCCCN)NC(=O)[C@H](CCCCN)NC(=O)[C@H]([C@@H](C)CC)NC(=O)[C@H]([C@@H](C)CC)NC(=O)[C@H](CCCCN)NC(=O)[C@@H](NC(=O)[C@@H](NC(C)=O)[C@@H](C)CC)CSSC[C@@H](C(=O)N[C@@H](CCCCN)C(N)=O)NC(=O)[C@H]([C@@H](C)CC)NC(=O)[C@H](CCCCN)NC(=O)[C@H](CCCCN)NC(=O)[C@H]([C@@H](C)CC)NC(=O)[C@H]([C@@H](C)CC)NC(=O)[C@H](CCCCN)NC1=O [diIK10] (HELM PEPTIDE1{[ac].I.C.K.I.I.K.K.I.C.K.[am]}|PEPTIDE2{[ac].I.C.K.I.I.K.K.I.C.K.[am]}$PEPTIDE1,PEPTIDE2,3:R3-10:R3|PEPTIDE1,PEPTIDE2,10:R3-3:R3$$$V2.0; bridges inferred)	–	2.57	–
CC(=O)N[C@@H](CC(C)(C)C)C(=O)N[C@H]1CSSC[C@@H](C(=O)N[C@@H](CCCNC(=N)N)C(N)=O)NC(=O)[C@H](CC(C)(C)C)NC(=O)[C@H](CCCNC(=N)N)NC(=O)[C@H](CCCNC(=N)N)NC(=O)[C@H](CC(C)(C)C)NC(=O)[C@H](CC(C)(C)C)NC(=O)[C@H](CCCNC(=N)N)NC(=O)[C@@H](NC(=O)[C@H](CC(C)(C)C)NC(C)=O)CSSC[C@@H](C(=O)N[C@@H](CCCNC(=N)N)C(N)=O)NC(=O)[C@H](CC(C)(C)C)NC(=O)[C@H](CCCNC(=N)N)NC(=O)[C@H](CCCNC(=N)N)NC(=O)[C@H](CC(C)(C)C)NC(=O)[C@H](CC(C)(C)C)NC(=O)[C@H](CCCNC(=N)N)NC1=O [diNpgR10] (I: Ac-[tBuAla]CR[tBuAla][tBuAla]RR[tBuAla]CR-NH2 / II: Ac-[tBuAla]CR[tBuAla][tBuAla]RR[tBuAla]CR-NH2; disulfide I:2-II:9, I:9-II:2 (inferred))	low toxicity as compared with cell-penetrating ability	–	–
CC(=O)N[C@@H](CC(C)(C)C)C(=O)N[C@H]1CSSC[C@@H](C(=O)N[C@@H](CCCCN)C(N)=O)NC(=O)[C@H](CC(C)(C)C)NC(=O)[C@H](CCCCN)NC(=O)[C@H](CCCCN)NC(=O)[C@H](CC(C)(C)C)NC(=O)[C@H](CC(C)(C)C)NC(=O)[C@H](CCCCN)NC(=O)[C@@H](NC(=O)[C@H](CC(C)(C)C)NC(C)=O)CSSC[C@@H](C(=O)N[C@@H](CCCCN)C(N)=O)NC(=O)[C@H](CC(C)(C)C)NC(=O)[C@H](CCCCN)NC(=O)[C@H](CCCCN)NC(=O)[C@H](CC(C)(C)C)NC(=O)[C@H](CC(C)(C)C)NC(=O)[C@H](CCCCN)NC1=O [diL*K10] (I: Ac-[tBuAla]CK[tBuAla][tBuAla]KK[tBuAla]CK-NH2 / II: Ac-[tBuAla]CK[tBuAla][tBuAla]KK[tBuAla]CK-NH2; disulfide I:2-II:9, I:9-II:2 (inferred))	–	2.32	–
CC(=O)N[C@@H](Cc1ccccc1)C(=O)N[C@H]1CSSC[C@@H](C(=O)N[C@@H](CCCCN)C(N)=O)NC(=O)[C@H](Cc2ccccc2)NC(=O)[C@H](CCCCN)NC(=O)[C@H](CCCCN)NC(=O)[C@H](Cc2ccccc2)NC(=O)[C@H](Cc2ccccc2)NC(=O)[C@H](CCCCN)NC(=O)[C@@H](NC(=O)[C@H](Cc2ccccc2)NC(C)=O)CSSC[C@@H](C(=O)N[C@@H](CCCCN)C(N)=O)NC(=O)[C@H](Cc2ccccc2)NC(=O)[C@H](CCCCN)NC(=O)[C@H](CCCCN)NC(=O)[C@H](Cc2ccccc2)NC(=O)[C@H](Cc2ccccc2)NC(=O)[C@H](CCCCN)NC1=O [diFK10] (HELM PEPTIDE1{[ac].F.C.K.F.F.K.K.F.C.K.[am]}|PEPTIDE2{[ac].F.C.K.F.F.K.K.F.C.K.[am]}$PEPTIDE1,PEPTIDE2,3:R3-10:R3|PEPTIDE1,PEPTIDE2,10:R3-3:R3$$$V2.0; bridges inferred)	–	2.11	–
